Laboratory results published in PubChem BioAssay AID328 (DTP/NCI, 2004).
Where “and” joins values, the source holds several entries; their conditions need not be identical. Equal values may be shown once. Inconclusive results and toxic doses are left out.

Test system: BDF1 mice, P388 leukemia ip, median survival T/C
Assay: NCI In Vivo Anticancer Drug Screen. Data for tumor model P388 Leukemia (intraperitoneal) in B6D2F1 (BDF1) mice
Conditions: endpoint: median survival time, higher = longer survival
How it was run: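 Survival ratio, drug arm over vehicle arm, in mice with a transplanted tumour.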

[1] = dose: 100.0 mg/kg/injection, schedule: Q01DX009 (ip), vehicle: saline
[2] = dose: 200.0 mg/kg/injection, schedule: Q01DX009 (ip), vehicle: saline
[3] = dose: 100.0 mg/kg/injection, schedule: Q04DX003 (ip), vehicle: saline with Tween-80
[4] = dose: 400.0 mg/kg/injection, schedule: Q04DX003 (ip), vehicle: saline with Tween-80
[5] = dose: 50.0 mg/kg/injection, schedule: Q01DX009 (ip), vehicle: saline with Tween-80
[6] = dose: 100.0 mg/kg/injection, schedule: Q01DX009 (ip), vehicle: saline with Tween-80
[7] = dose: 200.0 mg/kg/injection, schedule: Q01DX009 (ip), vehicle: saline with Tween-80

CC(C)(C)OC(=O)NO
T/C [1]: 105 % of control
T/C (dose: 100.0 mg/kg/injection, schedule: Q04DX003 (ip), vehicle: saline): 91 % of control
T/C [2]: 95 % of control
T/C (dose: 200.0 mg/kg/injection, schedule: Q04DX003 (ip), vehicle: saline): 95 % of control
T/C (dose: 400.0 mg/kg/injection, schedule: Q01DX009 (ip), vehicle: saline): 90 % of control
T/C (dose: 400.0 mg/kg/injection, schedule: Q04DX003 (ip), vehicle: saline): 95 % of control

O=C(C(=O)C(Br)Br)C(Br)Br
T/C (dose: 6.25 mg/kg/injection, schedule: Q01DX009 (ip), vehicle: DMSO): 97 % of control

CCCCC(CC)COP(OCC(CC)CCCC)OCC(CC)CCCC (stereo not drawn)
T/C [3]: 109 % of control
T/C (dose: 200.0 mg/kg/injection, schedule: Q04DX003 (ip), vehicle: saline with Tween-80): 100 % of control
T/C [4]: 118 % of control

COc1cc(C=Nc2ccc(-c3nc(Cc4ccccc4)sc3C)cc2)ccc1N(CCCl)CCCl
T/C (dose: 3.13 mg/kg/injection, schedule: Q01DX009 (ip), vehicle: Klucel (hydroxypropylcellulose) (HPC)): 196 % of control
T/C (dose: 6.25 mg/kg/injection, schedule: Q01DX009 (ip), vehicle: Klucel (hydroxypropylcellulose) (HPC)): 206 % of control
T/C (dose: 12.5 mg/kg/injection, schedule: Q01DX009 (ip), vehicle: Klucel (hydroxypropylcellulose) (HPC)): 221 % of control
T/C (dose: 25.0 mg/kg/injection, schedule: Q01DX009 (ip), vehicle: Klucel (hydroxypropylcellulose) (HPC)): 194 % of control and 198 % of control
T/C (dose: 50.0 mg/kg/injection, schedule: Q01DX009 (ip), vehicle: Klucel (hydroxypropylcellulose) (HPC)): 108 % of control

C#CCOCC(CCl)OC(=O)Nc1ccccc1 (stereo not drawn)
T/C (dose: 25.0 mg/kg/injection, schedule: Q01DX009 (ip), vehicle: saline): 95 % of control
T/C (dose: 50.0 mg/kg/injection, schedule: Q01DX009 (ip), vehicle: saline): 104 % of control
T/C (dose: 50.0 mg/kg/injection, schedule: Q04DX003 (ip), vehicle: saline with Tween-80): 87 % of control
T/C [1]: 104 % of control
T/C [3]: 95 % of control
T/C [2]: 109 % of control
T/C [4]: 100 % of control

CCCC(O)(CCC)CC(=O)OCC
T/C (dose: 100.0 mg/kg/injection, schedule: Q04DX003 (ip), vehicle: saline sonified): 104 % of control
T/C (dose: 200.0 mg/kg/injection, schedule: Q04DX003 (ip), vehicle: saline sonified): 109 % of control
T/C (dose: 400.0 mg/kg/injection, schedule: Q04DX003 (ip), vehicle: saline sonified): 113 % of control

ClC(Cl)=C1OCCO1
T/C [5]: 104 % of control
T/C [6]: 98 % of control
T/C [7]: 100 % of control

c1ccc2cc3nc4cc5ccccc5cc4nc3cc2c1
T/C [6]: 99 % of control
T/C [7]: 100 % of control
T/C (dose: 400.0 mg/kg/injection, schedule: Q01DX009 (ip), vehicle: saline with Tween-80): 100 % of control

O=C(Nc1cccc(S(=O)(=O)F)c1)c1ccc(COc2ccc([N+](=O)[O-])cc2Cl)cc1
T/C [6]: 91 % of control
T/C [7]: 91 % of control

COc1cccc2c1C(=O)c1c(O)c3c(c(O)c1C2=O)CC(O)(C(=O)C(C)C)CC3OC1CC(N)C(O)C(C)O1 (stereo not drawn)
T/C (dose: 9.4 mg/kg/injection, schedule: Q04DX003 (ip), vehicle: water): 107 % of control
T/C (dose: 18.8 mg/kg/injection, schedule: Q04DX003 (ip), vehicle: water): 107 % of control
T/C (dose: 37.5 mg/kg/injection, schedule: Q04DX003 (ip), vehicle: water): 116 % of control
T/C (dose: 75.0 mg/kg/injection, schedule: Q04DX003 (ip), vehicle: water): 90 % of control

Cc1c(Cl)cccc1NC(=O)/C=C/C(=O)O
T/C (dose: 44.0 mg/kg/injection, schedule: Q01DX009 (ip), vehicle: saline with Tween-80): 95 % of control
T/C [5]: 122 % of control
T/C (dose: 66.0 mg/kg/injection, schedule: Q01DX009 (ip), vehicle: saline with Tween-80): 100 % of control
T/C [6]: 100 % of control
T/C (dose: 150.0 mg/kg/injection, schedule: Q01DX009 (ip), vehicle: saline with Tween-80): 104 % of control
T/C [7]: 109 % of control
